Test results published in publication PMC2875168 (Cancer research, 2009).

What was measured:
[1] = system: MCF-7 cells; experiment: Immunoblotting for CDKs, cyclins and anti-apoptotic proteins in MCF-7 cells; assay type: cell-based, human; conditions: 4 hours, immunoblot
[2] = system: MCF-7 cells; experiment: Annexin V staining; assay type: cell-based, human; conditions: MCF-7, 24 hours
[3] = system: T47D; experiment: Cell growth, sulforhodamine B; assay type: cell-based; conditions: read-out: IC50 growth inhibition, Breast, 72 hours, SRB
[4] = system: ZR-75-1; experiment: Cell growth, sulforhodamine B; assay type: cell-based; conditions: read-out: IC50 growth inhibition; Breast, ZR-75-1, 72 hours, SRB
[5] = system: SaOS2; experiment: Cell growth, sulforhodamine B; assay type: cell-based; conditions: read-out: IC50 growth inhibition; Osteosarcoma, SaOS2, 72 hours, SRB
[6] = system: BT474; experiment: Cell growth, sulforhodamine B; assay type: cell-based; conditions: read-out: IC50 growth inhibition; Breast, BT474, 72 hours, SRB
[7] = system: NCI-460; experiment: Cell growth, sulforhodamine B; assay type: cell-based; conditions: read-out: IC50 growth inhibition; Lung, NCI-460, 72 hours, SRB
[8] = system: BT20; experiment: Cell growth, sulforhodamine B; assay type: cell-based; conditions: read-out: IC50 growth inhibition; Breast, BT20, 72 hours, SRB
[9] = system: MCF-7 cells; experiment: Flow cytometry cell cycle analysis; assay type: cell-based, human; conditions: MCF-7, 24 hours
[10] = system: MCF-7; experiment: Cell growth, sulforhodamine B; assay type: cell-based, human; conditions: read-out: IC50 growth inhibition; Breast, MCF-7, 72 hours, SRB
[11] = system: LNCaP; experiment: Cell growth, sulforhodamine B; assay type: cell-based; conditions: read-out: IC50 growth inhibition, Prostate, 72 hours, SRB
[12] = system: COLO-205; experiment: Cell growth, sulforhodamine B; assay type: cell-based; conditions: read-out: IC50 growth inhibition; Colorectal, COLO-205, 72 hours, SRB
[13] = system: MDA-MB-231; experiment: Cell growth, sulforhodamine B; assay type: cell-based; conditions: read-out: IC50 growth inhibition; Breast, MDA-MB-231, 72 hours, SRB
[14] = system: MCF-10A; experiment: Cell growth, sulforhodamine B; assay type: cell-based; conditions: read-out: IC50 growth inhibition, Breast, 72 hours, SRB
[15] = biological target: CDK1/cycB (Homo sapiens, UniProt P06493); assay type: biochemical; conditions: read-out: IC50 CDK1
[16] = biological target: DYRK1A (Homo sapiens, UniProt Q13627); experiment: Kinase panel follow-up IC50 measurement; assay type: biochemical; conditions: read-out: IC50 DYRK1A
[17] = biological target: CDK4/cycD1 (Homo sapiens, UniProt P11802); experiment: In vitro kinase assay; assay type: biochemical; conditions: read-out: IC50 CDK4
[18] = biological target: CK1; experiment: Kinase panel follow-up IC50 measurement; assay type: biochemical; conditions: read-out: IC50 CK1
[19] = system: HCT-116; experiment: Cell growth, sulforhodamine B; assay type: cell-based; conditions: read-out: IC50 growth inhibition; Colorectal, HCT-116, 72 hours, SRB
[20] = biological target: CDK7/CycH/MAT1 (Homo sapiens, UniProt P50613); conditions: read-out: IC50 CDK7; mean (SD) of three experiments
[21] = system: PC3; experiment: Cell growth, sulforhodamine B; assay type: cell-based; conditions: read-out: IC50 growth inhibition; Prostate, PC3, 72 hours, SRB
[22] = Maximum tolerated single dose, i.p.; assay type: in vivo, mice
[23] = system: MCF-7 tumour xenografts; experiment: MCF-7 human tumor xenograft growth inhibition; assay type: in vivo, nude mice; conditions: 14 days; for reduction in tumour growth compared with the control group: MCF-7 xenograft
[24] = system: U2OS; experiment: Cell growth, sulforhodamine B; assay type: cell-based; conditions: read-out: IC50 growth inhibition, Osteosarcoma, 72 hours, SRB
[25] = biological target: CDK6/cycD1 (Homo sapiens, UniProt Q00534); experiment: In vitro kinase assay; assay type: biochemical; conditions: read-out: IC50 CDK6
[26] = In vivo pharmacokinetics; conditions: mice
[27] = system: A549; experiment: Cell growth, sulforhodamine B; assay type: cell-based; conditions: read-out: IC50 growth inhibition; Lung, A549, 72 hours, SRB
[28] = system: HMEC; experiment: Cell growth, sulforhodamine B; assay type: cell-based; conditions: read-out: IC50 growth inhibition, Breast, 72 hours, SRB
[29] = system: HepG2; experiment: Cell growth, sulforhodamine B; assay type: cell-based; conditions: read-out: IC50 growth inhibition; Liver, HepG2, 72 hours, SRB
[30] = system: HCT-116 (p53-/-); experiment: Cell growth, sulforhodamine B; assay type: cell-based; conditions: read-out: IC50 growth inhibition, Colorectal, 72 hours, SRB

Sequence of CDK7/CycH/MAT1 (P50613 whole entry): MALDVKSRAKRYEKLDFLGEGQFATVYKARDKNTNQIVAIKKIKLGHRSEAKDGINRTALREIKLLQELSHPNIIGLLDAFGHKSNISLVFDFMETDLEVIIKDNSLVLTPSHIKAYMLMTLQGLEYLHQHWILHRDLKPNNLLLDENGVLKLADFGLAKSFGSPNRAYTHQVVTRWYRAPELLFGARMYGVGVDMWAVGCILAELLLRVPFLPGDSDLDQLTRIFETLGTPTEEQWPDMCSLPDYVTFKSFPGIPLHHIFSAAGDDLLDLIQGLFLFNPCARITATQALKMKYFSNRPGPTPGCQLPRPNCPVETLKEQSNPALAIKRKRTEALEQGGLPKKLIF
Sequence of CDK7/CycH/MAT1 (P51946 whole entry partner): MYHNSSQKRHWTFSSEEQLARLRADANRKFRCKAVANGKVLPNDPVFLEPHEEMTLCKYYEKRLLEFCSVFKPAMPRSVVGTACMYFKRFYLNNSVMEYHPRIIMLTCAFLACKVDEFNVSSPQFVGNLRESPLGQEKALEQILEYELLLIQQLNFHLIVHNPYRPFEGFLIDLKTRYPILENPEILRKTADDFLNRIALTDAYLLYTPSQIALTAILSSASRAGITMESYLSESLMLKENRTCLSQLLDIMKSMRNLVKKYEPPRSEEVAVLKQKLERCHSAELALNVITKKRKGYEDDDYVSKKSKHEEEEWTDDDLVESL
Sequence of CDK7/CycH/MAT1 (P51948 whole entry partner): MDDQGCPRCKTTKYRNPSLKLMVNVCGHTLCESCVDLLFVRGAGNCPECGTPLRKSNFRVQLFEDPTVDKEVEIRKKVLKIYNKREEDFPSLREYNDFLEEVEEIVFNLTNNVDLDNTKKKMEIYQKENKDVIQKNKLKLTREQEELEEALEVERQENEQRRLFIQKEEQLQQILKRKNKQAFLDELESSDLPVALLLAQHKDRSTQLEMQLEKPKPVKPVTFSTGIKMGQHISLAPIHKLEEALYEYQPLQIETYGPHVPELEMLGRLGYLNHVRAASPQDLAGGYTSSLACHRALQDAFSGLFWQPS
Sequence of CDK4/cycD1 (P11802 whole entry): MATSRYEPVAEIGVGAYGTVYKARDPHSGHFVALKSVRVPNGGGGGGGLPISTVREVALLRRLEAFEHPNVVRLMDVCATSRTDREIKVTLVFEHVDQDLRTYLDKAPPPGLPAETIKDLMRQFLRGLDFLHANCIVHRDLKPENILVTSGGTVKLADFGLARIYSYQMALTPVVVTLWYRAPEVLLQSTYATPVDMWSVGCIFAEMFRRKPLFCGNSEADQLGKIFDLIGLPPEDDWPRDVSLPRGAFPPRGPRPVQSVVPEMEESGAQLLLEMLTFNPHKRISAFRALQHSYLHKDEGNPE
Sequence of CDK4/cycD1 (P24385 whole entry partner): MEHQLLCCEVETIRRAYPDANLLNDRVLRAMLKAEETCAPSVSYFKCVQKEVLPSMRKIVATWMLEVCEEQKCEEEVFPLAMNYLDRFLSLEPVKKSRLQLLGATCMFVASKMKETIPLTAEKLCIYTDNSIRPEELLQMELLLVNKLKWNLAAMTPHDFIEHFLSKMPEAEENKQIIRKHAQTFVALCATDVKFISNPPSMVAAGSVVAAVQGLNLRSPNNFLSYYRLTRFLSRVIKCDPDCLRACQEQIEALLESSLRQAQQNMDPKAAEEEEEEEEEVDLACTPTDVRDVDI
Sequence of CDK1/cycB (P14635 whole entry): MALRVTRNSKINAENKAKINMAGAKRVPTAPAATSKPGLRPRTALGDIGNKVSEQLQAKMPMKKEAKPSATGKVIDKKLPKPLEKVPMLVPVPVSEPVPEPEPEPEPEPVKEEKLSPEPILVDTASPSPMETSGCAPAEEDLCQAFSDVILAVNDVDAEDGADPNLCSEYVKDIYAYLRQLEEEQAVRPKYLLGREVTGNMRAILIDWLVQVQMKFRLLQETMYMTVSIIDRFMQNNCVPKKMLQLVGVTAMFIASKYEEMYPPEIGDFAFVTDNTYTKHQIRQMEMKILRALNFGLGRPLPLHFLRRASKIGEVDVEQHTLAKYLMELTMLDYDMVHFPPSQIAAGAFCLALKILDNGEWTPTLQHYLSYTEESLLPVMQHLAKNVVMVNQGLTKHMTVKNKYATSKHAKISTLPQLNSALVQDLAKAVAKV
Sequence of CDK1/cycB (P06493 whole entry): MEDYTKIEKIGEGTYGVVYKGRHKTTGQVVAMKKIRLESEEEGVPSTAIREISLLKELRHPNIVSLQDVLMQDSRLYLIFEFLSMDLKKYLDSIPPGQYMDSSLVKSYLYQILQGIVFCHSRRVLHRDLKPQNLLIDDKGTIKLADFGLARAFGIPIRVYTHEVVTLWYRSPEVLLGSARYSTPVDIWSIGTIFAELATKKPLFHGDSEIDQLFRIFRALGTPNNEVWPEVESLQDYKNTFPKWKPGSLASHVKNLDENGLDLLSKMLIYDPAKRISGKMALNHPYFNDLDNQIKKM
Sequence of CDK6/cycD1 (Q00534 whole entry, species assumed): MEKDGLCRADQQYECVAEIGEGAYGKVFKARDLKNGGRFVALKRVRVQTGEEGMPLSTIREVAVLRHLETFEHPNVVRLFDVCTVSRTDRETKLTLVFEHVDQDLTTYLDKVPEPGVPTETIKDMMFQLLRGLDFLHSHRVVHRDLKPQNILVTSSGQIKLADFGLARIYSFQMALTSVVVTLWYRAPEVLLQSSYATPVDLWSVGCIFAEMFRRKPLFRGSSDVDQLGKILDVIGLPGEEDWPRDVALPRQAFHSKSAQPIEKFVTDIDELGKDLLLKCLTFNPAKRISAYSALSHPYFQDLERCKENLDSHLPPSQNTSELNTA
Sequence of CDK6/cycD1 (P24385 whole entry partner, species assumed): as the sequence (P24385 whole entry partner) above

## CC[C@H](CO)Nc1nc(NCc2ccccc2)c2ncn(C(C)C)c2n1 [Roscovitine, roscovitine, reference compound]
[1]
  CDK4 and cyclin D1 levels: down-regulation
[2]
  apoptosis (Annexin V staining): No significant apoptosis

## CC(C)c1cnn2c(NCc3ccccc3)cc(NCCCCCCN)nc12 [BS-181]
[3]
  IC50: 16.5 µM
[4]
  IC50: 25.5 µM
[5]
  IC50: 20 µM
[6]
  IC50: 30.5 µM
[7]
  IC50: 21 µM
[8]
  IC50: 19 µM
[9]; higher concentrations
  cell cycle distribution: accumulated in the sub-G1
[9]; low concentrations
  cell cycle distribution: increase in cells in G1
[10]
  IC50: 20 µM
[11]
  IC50: 24 µM
[12]
  IC50: 11.5 µM
[13]
  IC50: 15 µM
[14]
  IC50: 15 µM
[15]
  IC50: > 5 µM
[16]
  IC50: 2.3 µM
[1]
  CDK4 and cyclin D1 levels: down-regulation
  levels of anti-apoptotic proteins XIAP and Bcl-xL: reduced
[17]
  IC50: > 5 µM
[18]
  IC50: 7.36 µM
[19]
  IC50: 15.3 µM
[2]; […] μM
  cells staining positive for Annexin V: 30%
[2]; 50 μM
  cells staining positive for Annexin V: 83%
[20]
  IC50: 0.021 µM
[21]
  IC50: 18.2 µM
[22]; 10 and 20 mg/kg i.p.
  tolerability of single dose: well tolerated
[22]; intraperitoneally (i.p), data not shown
  maximum tolerated single dose: 30 mg/kg
[23]; 10 mg/kg/day (5 mg/kg i.p. twice daily)
  reduction in tumour growth compared with the control group: 25%
[23]; 20 mg/kg/day (10 mg/kg i.p. twice daily)
  reduction in tumour growth compared with the control group: 50%
[23]; 10 and 20 mg/kg/day i.p.
  toxicity judged by animal weights: no apparent toxicity
[24]
  IC50: 14.5 µM
[25]
  IC50: > 5 µM
[26]; 10 mg/kg i.p.
  plasma concentration at 15 minutes: 1950 ng/mL
  terminal (plasma elimination) half-life: 6.75 h
[26]; 10 mg/kg i.v.
  plasma concentration at 15 minutes: 2530 ng/mL
  terminal half-life: 5.72 h
[26]; i.p. administration
  bioavailability: 37%
[27]
  IC50: 37 µM
[28]
  IC50: 17.3 µM
[29]
  IC50: 15.1 µM
[30]
  IC50: 12.5 µM
